Source: US20120149081A1, “METHOD FOR FERMENTATION CULTURE IN MEDIUM CONTAINING XYLOSE” (priority 2010, published 2012)

Legend:
[1] = tested on: recombinant yeast W801M strain; assay: Simultaneous (glucose/xylose) fermentation test in medium supplemented with amino acid, primary screening; assay type: cell-based, Saccharomyces cerevisiae; conditions: hour 8 after start, amino acid amount per Table 3; for ΔXylose 0-8 h (decreased amount of xylose): YNGXAc+U medium (10 g/l xylose, 10 g/l glucose), 30° C., initial OD600=10, n=2; for Control ratio % (ΔXylose 0-8 h relative to no-addition control): YNGXAc+U medium, n=2
Description: (§1) The W801M strain prepared as described above was cultured in 5 ml of an YNG+U (6.7 g/l Yeast Nitrogen Base without amino acids, 20 g/l glucose, 20 mg/l uracil) liquid medium prepared in a test tube at 30° C. and 80 rpm for 24 hours, thereby preparing a pre-pre-culture solution. Next, the pre-pre-culture solution (5 ml) was added to new YNX+U liquid medium (250 ml) prepared in a baffled Erlenmeyer flask, followed by pre-culture at 30° C. and 100 rpm. After 48 hours of culture, the culture solution was subjected to 5 minutes of centrifugation at 1000×g at room temperature, thereby removing the supernatant.
(§2) To prevent the introduction of the substrate into the pre-culture solution, the thus collected microbial pellet was suspended in sterile water and then subjected to centrifugation at 1000×g for 5 minutes, thereby collecting microorganisms. Washing was performed twice. After washing, microorganisms were suspended in sterile water, so that a microbial solution was prepared. A sodium acetate buffer was added to the fermentation medium so as to suppress a pH decrease in the medium associated with fermentation. The microbial solution was added to an YNGXAc+U medium (6.7 g/l Yeast Nitrogen Base without amino acids, 10 g/l D-Xylose, 10 g/l Glucose, 25 mM sodium acetate, 20 mg/l uracil, pH 5.0) so that the initial microbial concentration was OD600=10. One type of amino acid was added to the YNGXAc+U medium to result in a predetermined concentration, and then the medium was used. Amino acid was dissolved in water to a concentration 10 times greater than the final concentration. Then the solution was adjusted to pH 5.0, diluted, and then used. The fermentation test was conducted as follows. Five (5) ml of the culture solution was added to a 15-ml plastic tube with a screw cap, the tube was sealed with the cap, and then the tube was shaken at 30° C. (100 rpm). Sampling from the culture solution was performed over time and thus substrates (xylose and glucose) and the product (ethanol) were analyzed via liquid chromatography. Liquid chromatography was performed using a Shim-pack SPR-Pb column (Shimadzu Corporation) at 80° C. An RID-10A refractive index detector (Shimadzu Corporation) was used. Water was used for a mobile phase and sent at a flow rate of 0.8 ml/min.
A fermentation test was conducted (n=2) using as a control an YNGXAc+U medium to which nothing had been added, an YNGXAc+U medium supplemented with casamino acid (CAA, 20 g/L) (that is, an amino acid mixture obtained via hydrolysis of casein) and YNGXAc+U medium supplemented with 18 types of amino acids considered to be contained in casamino acid (20 g/L) or 2 types of amino acid (glutamine and asparagine) (5 g/L) considered not to be contained in casamino acid. The results of the measurement of the decreased amounts of xylose at hour 8 after the start of the fermentation test are shown in Table 3.

[2] = tested on: recombinant yeast W801M strain; assay: Simultaneous (glucose/xylose) fermentation test in medium supplemented with amino acid, secondary test; assay type: cell-based, Saccharomyces cerevisiae; conditions: n=4
Description: as §1, §2
In addition, 8 hours later, glucose had been completely consumed and thus was not detected in any samples.
Also, 2 hours later, glucose remained in all samples.
Also, 22 hours later, both glucose and xylose had been completely consumed and thus was not detected. It was understood from the results that the microbial concentrations had increased from the initial microbial concentration of OD600=10 to around OD600=15 at hour 22. However, the microbial concentrations at hour 22 when the amino acids were added were equivalent to or lower than that of the control.

SMILES	ΔXylose 0-8 h (decreased amount of xylose) [1] [g/L]	Control ratio % (ΔXylose 0-8 h relative to no-addition control) [1] [%]	xylose consumption rate compared with the control (decreased amount of xylose at hour 8, FIG. 7) ([2]; amino acid added at 0.3 g/L)	xylose consumption rate compared with the control (decreased amount of xylose at hour 8, FIG. 7) ([2]; amino acid added at 1 g/L)
C[C@H](N)C(=O)O [Ala, alanine]	2.95	111		
N=C(N)NCCC[C@H](N)C(=O)O [Arg, arginine]	2.91	109		
NC(=O)C[C@H](N)C(=O)O [Asn, asparagine]	3.60	135	Significant effects of improvement	Significant effects of improvement
N[C@@H](CC(=O)O)C(=O)O [Asp, aspartic acid]	2.46	92		
N[C@@H](CS)C(=O)O [Cys]	2.81	106		
NC(=O)CC[C@H](N)C(=O)O [Gln, glutamine]	3.05	115		
N[C@@H](CCC(=O)O)C(=O)O [Glu, glutamic acid]	2.25	85		
NCC(=O)O [Gly]	3.03	114		
N[C@@H](Cc1c[nH]cn1)C(=O)O [His, histidine]	3.26	122	Significant effects of improvement	
CC[C@H](C)[C@H](N)C(=O)O [Ile]	2.09	79		
CC(C)C[C@H](N)C(=O)O [Leu, leucine]	1.12	42		
NCCCC[C@H](N)C(=O)O [Lys]	3.08	116		
CSCC[C@H](N)C(=O)O [Met]	2.67	100		
N[C@@H](Cc1ccccc1)C(=O)O [Phe]	2.79	105		
O=C(O)[C@@H]1CCCN1 [Pro]	2.97	112		
N[C@@H](CO)C(=O)O [Ser, serine]	3.42	128	Significant effects of improvement	Significant effects of improvement
C[C@@H](O)[C@H](N)C(=O)O [Thr, threonine]	3.29	124	Significant effects of improvement	Significant effects of improvement
N[C@@H](Cc1c[nH]c2ccccc12)C(=O)O [Trp]	3.07	115		
N[C@@H](Cc1ccc(O)cc1)C(=O)O [Tyr, tyrosine]	3.62	136		Significant effects of improvement
CC(C)[C@H](N)C(=O)O [Val, valine]	2.67	100		
